The values that follow come from patent US12473304B2, “Heterocyclic PAD4 inhibitors” (BRISTOL-MYERS SQUIBB COMPANY, priority 2020, dated 2025).

Molecules are shown by their SMILES.

Sequence of human PAD4 (hPAD4) (Q9UM07 whole entry): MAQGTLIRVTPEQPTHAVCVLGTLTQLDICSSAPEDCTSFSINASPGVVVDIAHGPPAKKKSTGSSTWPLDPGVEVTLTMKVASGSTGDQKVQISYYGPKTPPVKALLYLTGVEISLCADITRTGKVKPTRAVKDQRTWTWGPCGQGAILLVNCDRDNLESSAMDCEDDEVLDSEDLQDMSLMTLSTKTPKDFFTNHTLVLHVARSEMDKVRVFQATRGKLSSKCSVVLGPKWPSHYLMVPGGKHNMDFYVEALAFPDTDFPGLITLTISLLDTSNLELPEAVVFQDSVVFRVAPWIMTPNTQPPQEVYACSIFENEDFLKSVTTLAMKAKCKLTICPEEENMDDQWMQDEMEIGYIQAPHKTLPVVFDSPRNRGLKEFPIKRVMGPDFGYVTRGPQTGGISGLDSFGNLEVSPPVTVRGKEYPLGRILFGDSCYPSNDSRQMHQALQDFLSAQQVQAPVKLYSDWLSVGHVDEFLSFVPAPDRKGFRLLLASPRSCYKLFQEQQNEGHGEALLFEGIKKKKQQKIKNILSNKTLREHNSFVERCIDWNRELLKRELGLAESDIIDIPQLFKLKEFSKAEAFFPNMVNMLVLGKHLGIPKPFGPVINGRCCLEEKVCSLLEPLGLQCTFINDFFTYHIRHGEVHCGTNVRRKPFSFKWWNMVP

The target in this assay is human PAD4 (hPAD4) (Homo sapiens (Human), UniProt Q9UM07). The assay is described as follows: RFMS Human PAD4 Functional Assay 1. The assay is classed as biochemical. To be noted: RFMS assay 1; 5 nM hPAD4, 250 μM BAEE substrate, 50 μM calcium, 37° C. The gist of the method:
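Citrullination product read by RapidFire triple-quad MRM against a modified-citrulline internal standard, after TCA stop and 30 min phenyl glyoxal step at 37 °C. Reaction: 250 μM BAEE, 5 nM human PAD4, 90 min at 37 °C, pH 7.5 HEPES buffer with 50 μM calcium and 5 μM TPEN, following 30 min compound–enzyme preincubation (max 50 μM).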
Consider `Cc1c(-c2cc3cccc(C4CCN(C(=O)C(C)(C)O)CC4)c3n2CC2CC2)nn2cc(C(=O)N3C[C@H](N)C[C@@H](F)C3)ccc12` [Example 435, 1-(4-(2-(6-((3R,5R)-3-amino-5-fluoropiperidine-1-carbonyl)-3-methylpyrazolo[1,5-a]pyridin-2-yl)-1-(cyclopropylmethyl)-1H-indol-7-yl)piperidin-1-yl)-2-hydroxy-2-methylpropan-1-one], for which the half-inhibitory concentration (IC50) (as a rule, the midpoint of a concentration-inhibition curve) was determined as 380 nM.

Consider `Cc1c(-c2cc3cccc(C4CCN(C(=O)C(C)(C)O)CC4)c3n2CC2CC2)nn2cc(C(=O)N3CCC[C@@H](N)C3)ccc12` [Example 436, (R)-1-(4-(2-(6-(3-aminopiperidine-1-carbonyl)-3-methylpyrazolo[1,5-a]pyridin-2-yl)-1-(cyclopropylmethyl)-1H-indol-7-yl)piperidin-1-yl)-2-hydroxy-2-methylpropan-1-one], for which the IC50 was determined as 300 nM.

As to `Cc1c(-c2cc3cccc(C4CCN(C(=O)CCO)CC4)c3n2CC2CC2)nn2cc(C(=O)N3CCC[C@@H](N)C3)ccc12` [Example 437, (R)-1-(4-(2-(6-(3-aminopiperidine-1-carbonyl)-3-methylpyrazolo[1,5-a]pyridin-2-yl)-1-(cyclopropylmethyl)-1H-indol-7-yl)piperidin-1-yl)-3-hydroxypropan-1-one], the IC50 is 110 nM.

Turning to `Cc1c(-c2cc3cccc(C4CCN(C(=O)CO)CC4)c3n2CC2CC2)nn2cc(C(=O)N3C[C@H](N)C[C@@H](F)C3)ccc12` [Example 438, 1-(4-(2-(6-((3R,5R)-3-amino-5-fluoropiperidine-1-carbonyl)-3-methylpyrazolo[1,5-a]pyridin-2-yl)-1-(cyclopropylmethyl)-1H-indol-7-yl)piperidin-1-yl)-2-hydroxyethan-1-one], the IC50 is 30 nM.

For `Cc1c(-c2cc3cccc(C4CCN(C(=O)CO)CC4)c3n2CC2CC2)nn2cc(C(=O)N3CCC[C@@H](N)C3)ccc12` [Example 439, (R)-1-(4-(2-(6-(3-aminopiperidine-1-carbonyl)-3-methylpyrazolo[1,5-a]pyridin-2-yl)-1-(cyclopropylmethyl)-1H-indol-7-yl)piperidin-1-yl)-2-hydroxyethan-1-one], the IC50 was found to be 30 nM.

With `Cc1c(-c2cc3cccc(C4CCN(C(=O)[C@@H]5CCC[C@H](O)C5)CC4)c3n2CC2CC2)nn2cc(C(=O)N3CCC[C@@H](N)C3)ccc12` [Example 440, ((R)-3-aminopiperidin-1-yl)(2-(1-(cyclopropylmethyl)-7-(1-((1R,3S)-3-hydroxycyclohexane-1-carbonyl)piperidin-4-yl)-1H-indol-2-yl)-3-methylpyrazolo[1,5-a]pyridin-6-yl)methanone], the IC50 came to 60 nM.

For `CCOCC(=O)N1CCC(c2cccc3cc(-c4nn5cc(C(=O)N6CCC[C@@H](N)C6)ccc5c4C)n(CC4CC4)c23)CC1` [Example 441, (R)-1-(4-(2-(6-(3-aminopiperidine-1-carbonyl)-3-methylpyrazolo[1,5-a]pyridin-2-yl)-1-(cyclopropylmethyl)-1H-indol-7-yl)piperidin-1-yl)-2-ethoxyethan-1-one], the IC50 amounted to 60 nM.

For the compound `CCOCC(=O)N1CCC(c2cccc3cc(-c4nn5cc(C(=O)N6C[C@H](N)C[C@@H](F)C6)ccc5c4C)n(CC4CC4)c23)CC1` [Example 442, 1-(4-(2-(6-((3R,5R)-3-amino-5-fluoropiperidine-1-carbonyl)-3-methylpyrazolo[1,5-a]pyridin-2-yl)-1-(cyclopropylmethyl)-1H-indol-7-yl)piperidin-1-yl)-2-ethoxyethan-1-one], the IC50 amounted to 30 nM.

On to `Cc1c(-c2cc3cccc(C4CCN(C(=O)[C@H]5CC[C@H](O)CC5)CC4)c3n2CC2CC2)nn2cc(C(=O)N3CCC[C@@H](N)C3)ccc12` [Example 443, ((R)-3-aminopiperidin-1-yl)(2-(1-(cyclopropylmethyl)-7-(1-((1r,4r)-4-hydroxycyclohexane-1-carbonyl)piperidin-4-yl)-1H-indol-2-yl)-3-methylpyrazolo[1,5-a]pyridin-6-yl)methanone], for which the IC50 was determined as 130 nM.

As for `Cc1c(-c2cc3cccc(C4CCN(C(=O)[C@H]5CC[C@@H](O)CC5)CC4)c3n2CC2CC2)nn2cc(C(=O)N3C[C@H](N)C[C@@H](F)C3)ccc12` [Example 444, ((3R,5R)-3-amino-5-fluoropiperidin-1-yl)(2-(1-(cyclopropylmethyl)-7-(1-((1s,4s)-4-hydroxycyclohexane-1-carbonyl)piperidin-4-yl)-1H-indol-2-yl)-3-methylpyrazolo[1,5-a]pyridin-6-yl)methanone], the IC50 is 10 nM.

In the case of `Cc1c(-c2cc3cccc(C4CCN(C(=O)CC(C)C)CC4)c3n2CC2CC2)nn2cc(C(=O)N3C[C@H](N)C[C@@H](F)C3)ccc12` [Example 445, 1-(4-(2-(6-((3R,5R)-3-amino-5-fluoropiperidine-1-carbonyl)-3-methylpyrazolo[1,5-a]pyridin-2-yl)-1-(cyclopropylmethyl)-1H-indol-7-yl)piperidin-1-yl)-3-methylbutan-1-one], the IC50 amounted to 160 nM.

Turning to `Cc1c(-c2cc3cccc(C4CCN(C(=O)CC(C)C)CC4)c3n2CC2CC2)nn2cc(C(=O)N3CCC[C@@H](N)C3)ccc12` [Example 446, (R)-1-(4-(2-(6-(3-aminopiperidine-1-carbonyl)-3-methylpyrazolo[1,5-a]pyridin-2-yl)-1-(cyclopropylmethyl)-1H-indol-7-yl)piperidin-1-yl)-3-methylbutan-1-one], the IC50 is 130 nM.

On to `Cc1c(-c2cc3cccc(C4CCN(C(=O)[C@H]5CCC[C@@H](O)C5)CC4)c3n2CC2CC2)nn2cc(C(=O)N3CCC[C@@H](N)C3)ccc12` [Example 447, ((R)-3-aminopiperidin-1-yl)(2-(1-(cyclopropylmethyl)-7-(1-((1S,3R)-3-hydroxycyclohexane-1-carbonyl)piperidin-4-yl)-1H-indol-2-yl)-3-methylpyrazolo[1,5-a]pyridin-6-yl)methanone], for which the IC50 came to 170 nM.

With `Cc1c(-c2cc3cccc(C4CCN(C(=O)[C@H]5CCC[C@@H](O)C5)CC4)c3n2CC2CC2)nn2cc(C(=O)N3C[C@H](N)C[C@@H](F)C3)ccc12` [Example 448, ((3R,5R)-3-amino-5-fluoropiperidin-1-yl)(2-(1-(cyclopropylmethyl)-7-(1-((1S,3R)-3-hydroxycyclohexane-1-carbonyl)piperidin-4-yl)-1H-indol-2-yl)-3-methylpyrazolo[1,5-a]pyridin-6-yl)methanone], the IC50 worked out at 70 nM.

`Cc1c(-c2cc3cccc(C4CCN(C(=O)[C@@H]5CCC[C@H](O)C5)CC4)c3n2CC2CC2)nn2cc(C(=O)N3C[C@H](N)C[C@@H](F)C3)ccc12` [Example 449, ((3R,5R)-3-amino-5-fluoropiperidin-1-yl)(2-(1-(cyclopropylmethyl)-7-(1-((1R,3S)-3-hydroxycyclohexane-1-carbonyl)piperidin-4-yl)-1H-indol-2-yl)-3-methylpyrazolo[1,5-a]pyridin-6-yl)methanone]: the IC50 stood at 50 nM.

As for `Cc1c(-c2cc3cccc(C4CCN(C(=O)[C@H]5CC[C@@H](O)CC5)CC4)c3n2CC2CC2)nn2cc(C(=O)N3CCC[C@@H](N)C3)ccc12` [Example 450, ((R)-3-aminopiperidin-1-yl)(2-(1-(cyclopropylmethyl)-7-(1-((2s,4s)-4-hydroxycyclohexane-1-carbonyl)piperidin-4-yl)-1H-indol-2-yl)-3-methylpyrazolo[1,5-a]pyridin-6-yl)methanone], the IC50 stood at 50 nM.
